Tests used:
A549 = test: Cytotoxicity against human A549 cells measured after 24 hrs by MTT assay; assay type: functional, cell-based
NRK-49F = test: Cytotoxicity against rat NRK-49F cells measured after 24 hrs by MTT assay; assay type: functional, cell-based
HeLa = test: Cytotoxicity against human HeLa cells measured after 24 hrs by MTT assay; assay type: functional, cell-based; set-up: unit not given here
SK-N-SH = test: Cytotoxicity against human SK-N-SH cells measured after 24 hrs by MTT assay; assay type: functional, cell-based
MCF7 [1] = test: Cytotoxicity against human MCF7 cells measured after 24 hrs by MTT assay; assay type: functional, cell-based
MCF7 [2] = test: Cell cycle arrest in human MCF7 cells assessed as accumulation at G1-phase at 4 uM measured after 24 hrs by propidium iodide staining based flow cytometry (reference value: 57%); assay type: functional
MCF7 [3] = test: Cell cycle arrest in human MCF7 cells assessed as accumulation at S-phase at 4 uM measured after 24 hrs by propidium iodide staining based flow cytometry (reference value: 14.9%); assay type: functional
MCF7 [4] = test: Cell cycle arrest in human MCF7 cells assessed as accumulation at subG0-phase at 4 uM measured after 24 hrs by propidium iodide staining based flow cytometry (reference value: 13.9%); assay type: functional
MCF7 [5] = test: Cell cycle arrest in human MCF7 cells assessed as accumulation at G2/M-phase at 4 uM measured after 24 hrs by propidium iodide staining based flow cytometry (reference value: 13.8%); assay type: functional
MCF7 [6] = test: Cell cycle arrest in human MCF7 cells assessed as accumulation at G2/M-phase at 4 uM measured after 24 hrs by propidium iodide staining based flow cytometry relative to control; assay type: functional
[7] = Inhibition of goat brain tubulin polymerization; set-up: species or system Capra hircus

| IC50 [7] | SMILES | IC50 (A549) | IC50 (NRK-49F) | IC50 (HeLa) | IC50 (SK-N-SH) | IC50 (MCF7 [1]) | Activity (MCF7 [2]) | Activity (MCF7 [3]) | Activity (MCF7 [4]) | Activity (MCF7 [5]) | fold change (FC) (MCF7 [6]) |
| --- | --- | --- | --- | --- | --- | --- | --- | --- | --- | --- | --- |
| – | C/C(=N\NC(=O)/C(C#N)=C/c1ccccc1)c1c(O)c2ccc(O)cc2oc1=O | 14.82 µmol | 55.45 µmol | 15.75 | 13.52 µmol | 19.22 µmol | – | – | – | – | – |
| – | C/C(=N\NC(=O)/C(C#N)=C/c1cccc(Br)c1)c1c(O)c2ccc(O)cc2oc1=O | 22.15 µmol | 59.39 µmol | 24.28 | 31.28 µmol | 19.64 µmol | – | – | – | – | – |
| – | COc1cccc2c1C(=O)c1c(O)c3c(c(O)c1C2=O)C[C@@](O)(C(=O)CO)C[C@@H]3O[C@H]1C[C@H](N)[C@H](O)[C@H](C)O1 [DOXORUBICIN] | 6.22 µmol | 24.22 µmol | – | 6.42 µmol | 9.86 µmol | – | – | – | – | – |
| – | C/C(=N\NC(=O)/C(C#N)=C/c1cccc([N+](=O)[O-])c1)c1c(O)c2ccc(O)cc2oc1=O | 21.9 µmol | 46.53 µmol | 24.64 | 28.26 µmol | 16.35 µmol | – | – | – | – | – |
| – | C/C(=N\NC(=O)/C(C#N)=C/c1ccc([N+](=O)[O-])cc1)c1c(O)c2ccc(O)cc2oc1=O | 9.64 µmol | 43.22 µmol | 8.36 | 10.26 µmol | 8.2 µmol | – | – | – | – | – |
| – | C/C(=N\NC(=O)/C(C#N)=C/c1ccc(Br)cc1)c1c(O)c2ccc(O)cc2oc1=O | 11.43 µmol | 49.64 µmol | 10.56 | 12.05 µmol | 9.85 µmol | – | – | – | – | – |
| – | COC(=O)Nc1nc2cc(C(=O)c3cccs3)ccc2[nH]1 [NOCODAZOLE] | – | – | – | – | – | 21.6% | 22% | 16.4 - 16.8% | 39.3% | – |
| – | COc1ccc(/C=C(\C#N)C(=O)N/N=C(\C)c2c(O)c3ccc(O)cc3oc2=O)cc1OC | 14.32 µmol | 45.28 µmol | 13.52 | 21.53 µmol | 14.35 µmol | – | – | – | – | – |
| 6.19 µM | C/C(=N\NC(=O)/C(C#N)=C/c1ccc(N(C)C)cc1)c1c(O)c2ccc(O)cc2oc1=O | 4.31 µmol | 53.41 µmol | 5.14 | 6.09 µmol | 3.42 µmol | 22.7 - 22.8% | 22.6% | 8.5 - 10.6% | 45.3% | 4 |
| – | COc1cc(/C=C(\C#N)C(=O)N/N=C(\C)c2c(O)c3ccc(O)cc3oc2=O)cc(OC)c1OC | 15.32 µmol | 55.34 µmol | 18.46 | 14.61 µmol | 11.34 µmol | – | – | – | – | – |
| – | COc1cc(/C=C(\C#N)C(=O)N/N=C(\C)c2c(O)c3ccc(O)cc3oc2=O)ccc1O | 12.63 µmol | 55.42 µmol | 10.46 | 14.35 µmol | 13.65 µmol | – | – | – | – | – |
| – | C/C(=N\NC(=O)/C(C#N)=C/c1ccccc1Cl)c1c(O)c2ccc(O)cc2oc1=O | 14.23 µmol | 55.89 µmol | 11.78 | 14.02 µmol | 8.88 µmol | – | – | – | – | – |
| – | C/C(=N\NC(=O)/C(C#N)=C/c1ccc(O)cc1)c1c(O)c2ccc(O)cc2oc1=O | 6.23 µmol | 61.31 µmol | 6.02 | 8.12 µmol | 7.32 µmol | – | – | – | – | – |
| – | C/C(=N\NC(=O)/C(C#N)=C/c1ccccc1[N+](=O)[O-])c1c(O)c2ccc(O)cc2oc1=O | 11.35 µmol | 68.59 µmol | 10.31 | 12.26 µmol | 9.18 µmol | – | – | – | – | – |
| – | COc1ccc(/C=C(\C#N)C(=O)N/N=C(\C)c2c(O)c3ccc(O)cc3oc2=O)cc1 | 8.15 µmol | 96.1 µmol | 7.85 | 9.46 µmol | 8.94 µmol | – | – | – | – | – |
